Measured values: patent US20110123483A1, “HMGB1 FOR CANCER TREATMENT” (DEUTSCHES KREBSFORSCHUNGSZENTRUM, priority 2009, published 2011)

Key:
NCH421 K cells = experiment: Propidiumiodide (PI) uptake by FACS analysis; type: cell-based; settings: 80 nM or 600 nM (FIG. 12C)
[1] = system: U251MG glioblastoma cells; experiment: Cytotoxicity assay, cell survival by crystal violet staining; type: cell-based, human
Experimental: 20,000 U251MG glioblastoma cells or human astrocytic cells (ScienCell) were plated into 96-well plates. After 24 h cells were treated with rhHMGB1 (Sigma Aldrich) or rat recombinant HMGB1 (generously provided by Angelika Bierhaus, Heidelberg, Germany), and TRAIL (for 24 h) or Temozolomide (for 72 h) alone or in combination, respectively. […] Cell proliferation was assessed by seeding 50,000 U251 MG cells in 6 cm culture plates and treatment with rhHMGB1, followed by counting the cells in a Neubauer chamber at day 0, 2, 4 and 5.

U251MG xenograft tumors = experiment: Subcutaneous U251MG xenograft tumors in CD1 nude mice, systemic treatment; type: in vivo
Experimental: All animal work was carried out in accordance with the NIH guidelines Guide for the Care and Use of Laboratory Animals. Six-week-old male athymic CD1 nude mice (Charles River, n=8) were injected subcutaneously with 7.5×10^6 U251MG cells in 100 μl PBS in the right flank using a 30-gauge needle. After 3 weeks, treatment of the xenograft tumors was initiated with 10 μg rhHMGB1 in 500 μl PBS or PBS only (control group) by daily intraperitoneal injections at the contralateral side for 6 weeks. Tumor volume was measured by a calliper using the ellipsoid formula (length×width×height×½) as described (Tomayko and Reynolds, 1989). After 6 weeks of treatment the animals were sacrificed and the paraffin embedded tumor sections were subjected to immunofluorescence analysis as outlined below.
Paraffin embedded slices of mouse tissue or xenograft tumors were dewaxed and dehydrated using xylene and ethanol, followed by heat-induced antigen retrieval using 10 mM citrate buffer, pH 6.0, for 3×5 min in a cooker. The sections were incubated with 1:10 COX IV (Alexa Fluor® 488 conjugate) antibody over night at 4° C., washed with PBS and covered with Vectashield® mounting medium (H-1200, Vector Laboratories Inc., 94010 CA, USA) containing DAPI (1.5 μg/ml).

[2] = system: non-immortalized human astrocytic cells; experiment: Cytotoxicity assay, cell survival by crystal violet staining; type: cell-based; settings: 72 h (FIG. 1B)
Experimental: U251 glioblastoma cells and non-immortalized human astrocytic cells (ScienCell, USA) were maintained in DMEM (Life Technologies) containing 10% FCS, 4.5 g/L glucose, glutamine, 110 mg/L sodium pyruvate, and 1% penicillin-streptomycin (Life Technologies) and in astrocyte medium (ScienCell) containing 2% FBS (fetal bovine serum) and 1% penicillin-streptomycin at 37° C. and 5% CO2. For the generation of pseudo rho zero cells (0.0), U251 MG cells were treated with low dose (250 ng/ml) ethidiumbromide for 3 months. The cells were supplemented with DMEM (10% FCS, 1% P/S) containing 50 μg/ml L-pyruvate and 5 mg/ml uridine (King and Attardi, 1989).
20,000 U251MG glioblastoma cells or human astrocytic cells (ScienCell) were plated into 96-well plates. After 24 h cells were treated with rhHMGB1 (Sigma Aldrich) or rat recombinant HMGB1 (generously provided by Angelika Bierhaus, Heidelberg, Germany), and TRAIL (for 24 h) or Temozolomide (for 72 h) alone or in combination, respectively. Cell survival was measured by crystal violet staining as described previously (Gdynia et al., 2007). Cell proliferation was assessed by seeding 50,000 U251 MG cells in 6 cm culture plates and treatment with rhHMGB1, followed by counting the cells in a Neubauer chamber at day 0, 2, 4 and 5.

U251 MG cells = experiment: Western blot of phospho-H2A.X and BNIP3; type: cell-based, human; settings: 24 h (FIG. 7)
Experimental: The U251 MG tumor cells were lysed in lysis buffer containing 20 mmol/L Tris-HCl (pH 7.4), 137 mmol/L NaCl, 10% (v/v) glycerine, 1% Triton X-100, 2 mmol/L EDTA, 100 mmol/L phenylmethylsulfonyl fluoride, and protease inhibitors (Complete mini; Roche Molecular Biochemicals). For the detection of phosphoprotein levels, 10 mmol/L NaPPi, 50 mmol/L NaF, and 20 mmol/L NaVO4 were added to the lysis buffer. After 15 min incubation on ice, the lysates were centrifuged at 14,000×g for 10 min. The total protein concentration of the lysates was measured using the Bradford assay (Bio-Rad). Soluble protein (25-100 μg per lane) was separated on 10% to 15% polyacrylamide gels and blotted onto nitrocellulose by standard procedures. […]

“rhHMGB1: recombinant human High Mobility Group B1 protein (Sigma Aldrich)” was tested, and the “Propidiumiodide (PI) uptake compared to untreated control” value (NCH421 K cells) was “evidently increased”, the “cell death, combined treatment with TRAIL” value ([1]; 4 nM rhHMGB1 and TRAIL, 24 h (FIG. 1C)) was “strong synergistic induction of cell death” and the “cell death, combined treatment with Temozolomide” value ([1]; 4 nM rhHMGB1 and temozolomide, 72 h (FIG. 1C)) was “strong synergistic induction of cell death”. The cell death ([1]; 80 nM, after 48 h) was “substantial cell death”, the “susceptibility to rhHMGB1-induced cell death” value ([1]; 72 h (FIG. 1B)) was “susceptible” and the “tumor size versus control group” value (U251MG xenograft tumors; 10 μg daily intraperitoneal, after six weeks (FIG. 1D)) was “significantly smaller tumors than the control group”. The “formation of megamitochondria in xenograft tumor tissue” value (U251MG xenograft tumors; after a 6 week systemic treatment (FIG. 9)) was “formation of megamitochondria was also observed”, the “susceptibility to rhHMGB1-induced cell death” value [2] was “not human non-immortalized astrocytes were susceptible” and the BNIP3 expression (U251 MG cells) was “not up-regulated”. For the same substance, the H2A.X phosphorylation (U251 MG cells) was “not observed”.
